According to patent US6462063B1, “C-proteinase inhibitors” (Fibrogen, Inc., priority 2000, dated 2002):

These compounds were tested against T1, recombinant human C-proteinase (Homo sapiens, UniProt P13497) (assay: C-Proteinase IC50 assay, fluorogenic peptide). Settings: 50 μM fluorogenic peptide, pH 7.6, 4 hours at 37° C., fluorescence, read-out: C-Proteinase Inhibitor IC50.
T1 sequence (P13497 121-986): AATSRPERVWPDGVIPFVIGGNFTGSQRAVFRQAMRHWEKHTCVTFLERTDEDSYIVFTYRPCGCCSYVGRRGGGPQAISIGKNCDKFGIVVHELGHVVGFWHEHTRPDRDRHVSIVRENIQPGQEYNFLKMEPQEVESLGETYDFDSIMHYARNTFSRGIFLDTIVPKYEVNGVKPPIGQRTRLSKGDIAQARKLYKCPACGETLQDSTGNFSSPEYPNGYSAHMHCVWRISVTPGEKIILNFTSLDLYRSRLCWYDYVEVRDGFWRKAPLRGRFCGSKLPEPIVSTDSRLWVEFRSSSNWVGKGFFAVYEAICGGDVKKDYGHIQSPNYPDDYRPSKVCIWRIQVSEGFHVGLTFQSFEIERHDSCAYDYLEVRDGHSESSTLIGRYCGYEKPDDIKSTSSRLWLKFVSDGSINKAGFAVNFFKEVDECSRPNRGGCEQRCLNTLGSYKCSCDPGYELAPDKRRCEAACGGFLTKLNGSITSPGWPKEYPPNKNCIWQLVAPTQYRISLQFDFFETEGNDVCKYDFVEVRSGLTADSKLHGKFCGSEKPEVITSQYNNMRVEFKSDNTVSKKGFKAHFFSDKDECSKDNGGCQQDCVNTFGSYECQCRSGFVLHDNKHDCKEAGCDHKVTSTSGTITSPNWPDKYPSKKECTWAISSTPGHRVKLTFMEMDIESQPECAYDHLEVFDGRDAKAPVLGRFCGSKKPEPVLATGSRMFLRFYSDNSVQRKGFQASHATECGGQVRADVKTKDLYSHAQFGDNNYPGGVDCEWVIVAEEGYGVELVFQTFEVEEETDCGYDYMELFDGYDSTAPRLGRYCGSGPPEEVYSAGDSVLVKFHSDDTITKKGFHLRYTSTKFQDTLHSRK
Type: biochemical
Description: The following assay may be used to determine the level of activity and effect of the different compounds of the present invention on C-proteinase activity. […] The reaction proceeded for 4 hours at 37° C. and the fluorescence was measured using a Bio-Tek Fl-600.
With `O=C(CCCC1C(=O)N(C23CC4CC(CC(C4)C2)C3)C(=O)N1Cc1ccccc1)NO` (stereo not drawn) [Compound 102] the IC50 was 770 nM.
`O=C(CCCC1C(=O)N(C2CCCCC2)C(=O)N1Cc1ccccc1)NO` (stereo not drawn) [Compound 107] showed an IC50 of 3330 nM.
With `O=C(CCCC1C(=O)N(C23CC4CC(CC(C4)C2)C3)C(=O)N1CC1CCCCC1)NO` (stereo not drawn) [Compound 127] the IC50 was 290 nM.
`O=C(CCCC1C(=O)N(C23CC4CC(CC(C4)C2)C3)C(=O)N1CC1CC2C=CC1C2)NO` (stereo not drawn) [Compound 128] gave an IC50 of 400 nM.
`O=C(CCCC1C(=O)N(C23CC4CC(CC(C4)C2)C3)C(=O)N1CC1CC1)NO` (stereo not drawn) [Compound 131] showed an IC50 of 430 nM.
`O=C(CCCC1C(=O)N(C23CC4CC(CC(C4)C2)C3)C(=O)N1Cc1cc(O)ccc1O)NO` (stereo not drawn) [Compound 137] gave an IC50 of 59 nM.
`COc1ccc(O)c(CN2C(=O)N(C34CC5CC(CC(C5)C3)C4)C(=O)C2CCCC(=O)NO)c1` (stereo not drawn) [Compound 139] gave an IC50 of 260 nM.
`O=C(CCCC1C(=O)N(C23CC4CC(CC(C4)C2)C3)C(=O)N1Cc1ccccc1O)NO` (stereo not drawn) [Compound 155] showed an IC50 of 270 nM.
Compound `O=C(CCCC1C(=O)N(C23CC4CC(CC(C4)C2)C3)C(=O)N1Cc1cccc(O)c1)NO` (stereo not drawn) [Compound 161] has an IC50 of 140 nM.
With `COc1ccccc1CN1C(=O)N(C23CC4CC(CC(C4)C2)C3)C(=O)C1CCCC(=O)NO` (stereo not drawn) [Compound 163] the IC50 was 600 nM.
With `COc1cccc(CN2C(=O)N(C34CC5CC(CC(C5)C3)C4)C(=O)C2CCCC(=O)NO)c1O` (stereo not drawn) [Compound 168] the IC50 was 430 nM.
`O=C(CCCC1C(=O)N(C23CC4CC(CC(C4)C2)C3)C(=O)N1Cc1ccccn1)NO` (stereo not drawn) [Compound 174] showed an IC50 of 210 nM.
Compound `O=C(CCCC1C(=O)N(C23CC4CC(CC(C4)C2)C3)C(=O)N1Cc1ccco1)NO` (stereo not drawn) [Compound 176] has an IC50 of 230 nM.
For `O=C(CCCC1C(=O)N(C23CC4CC(CC(C4)C2)C3)C(=O)N1Cc1cccc2c1OCO2)NO` (stereo not drawn) [Compound 179], the IC50 was 230 nM.
Compound `O=C(CCCC1C(=O)N(C23CC4CC(CC(C4)C2)C3)C(=O)N1CC1=COCCC1)NO` (stereo not drawn) [Compound 192] has an IC50 of 210 nM.
`O=C(CCCC1C(=O)N(C2CCCCC2)C(=O)N1Cc1ccccc1O)NO` (stereo not drawn) [Compound 195] gave an IC50 of 1080 nM.
`O=C(CCCC1C(=O)N(C2CCCCC2)C(=O)N1Cc1cccc(O)c1)NO` (stereo not drawn) [Compound 198] showed an IC50 of 1240 nM.
With `O=C(CSCC1C(=O)N(C23CC4CC(CC(C4)C2)C3)C(=O)N1Cc1ccccn1)NO` (stereo not drawn) [Compound 199] the IC50 was 290 nM.
